Reference: patent US10934282B2, “Heteroaromatic modulators of the retinoid-related orphan receptor gamma” (LEO PHARMA A/S, priority 2016, dated 2021)
pEC50: −log10 of the molar value.

How the values were obtained:
[1] = system: IL-17A in Human peripheral mononuclear cells; experiment: Human PBMC IL-17A assay; type: cell-based; details: 72 h, EC50, antiCD3/antiCD28-coated beads, 3 days, alpha-LISA
Protocol: This assay measures the IL-17A inhibitory potential of test compounds in Human peripheral mononuclear cells.
Peripheral blood mononuclear cells (PBMC) were isolated from human buffy coats using density grade centrifugation (Lymphoprep, Medinor), washed twice in PBS and frozen at −150° C. for later use.
Test compounds were diluted in DMSO and 70 nL of titrated test and reference compounds were transferred by the Echo liquid handling system to a 384-well assay plate in to give a final concentration of 0.1% DMSO in the wells.
The PBMC were thawed, washed and suspended in RPMI-1640 supplemented with pen/strep, glutamax and 10% bovine calf serum. The cells were mixed with antiCD3/antiCD28-coated beads (1 cells pr one bead) (Milteney T-cell expansion kit), and immediately thereafter the cells were pipetted to the plate at 130,000c/well. The plate was incubated for 3 days in humidified air/CO2 (95%/5%) On day 3 the level of IL-17A in the culture supernatant is measured using alpha-LISA kit (Perkin Elmer). Cell viability was measured by adding 6 uL pr well Prestoblue© (Life Technologies) and incubating for 2 hours followed by fluorescent measurement (Ex535/Em615). EC50 values were calculated using a 4-parameter non-linear regression curve-fitting model. Donors may be pre-screened in order to select PBMC with a high secretion of IL-17A.

[2] = target: T1, human RORgt nuclear receptor (RORgT ligand binding domain protein) (Homo sapiens, UniProt P51449); experiment: ROR-gamma binding assay (Scintillation Proximity Assay, displacement of [3H]-25-hydroxycholesterol); details: EC50, SPA, 15 nM [3H]-25-Hydroxycholesterol, RORgT LBD 12 nM
T1 construct: purchased Proteros Biostructures GmbH
T1 sequence (P51449 with tags, fused parts or gaps): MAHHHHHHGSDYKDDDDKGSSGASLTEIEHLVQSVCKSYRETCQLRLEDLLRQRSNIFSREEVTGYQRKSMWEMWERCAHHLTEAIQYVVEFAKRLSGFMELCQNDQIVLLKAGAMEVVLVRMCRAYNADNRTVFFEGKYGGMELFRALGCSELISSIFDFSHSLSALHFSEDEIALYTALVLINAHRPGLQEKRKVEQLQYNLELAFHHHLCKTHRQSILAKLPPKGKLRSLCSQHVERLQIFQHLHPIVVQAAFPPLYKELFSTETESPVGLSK
Protocol: This assay is used to evaluate the binding affinity of compounds to the ligand-binding pocket of the human RORgt nuclear receptor based on displacement of a radio-ligand. The EC50 values are calculated using a four parameter fit. Compounds binding with high affinity to RORgt will have low EC50 values.
The assay is a Scintillation Proximity Assay (SPA) that involves competition between an unlabeled test compound and tritium-labeled 25-hydroxycholesterol for binding to RORgT ligand binding domain (LBD) protein immobilized on the surface of SPA beads. These beads contain a scintillant that emits light if excited by a radioactive particle, and this light is detected using a scintillation counter. In this assay, tritium-labelled 25-hydroxycholesterol is used as radiotracer.
400 nL of titrated test and reference compounds in DMSO were transferred by the Echo liquid handling system to a 384-well assay plate followed by addition of 5 μL [3H]-25-Hydroxycholesterol (Perkin Elmer) and 35 μL diluted RORgT LBD protein with the following amino acid sequence (HIS-FLG-tag): MAHHHHHHGSDYKDDDDKGSSGASLTEIEHLVQSVCKSYRETCQLRLEDLLRQRSNIFSREEVTGYQRKSMWEMWERCAHHLTEAIQYVVEFAKRLSGFMELCQNDQIVLLKAGAMEVVLVRMCRAYNADNRTVFFEGKYGGMELFRALGCSELISSIFDFSHSLSALHFSEDEIALYTALVLINAHRPGLQEKRKVEQLQYNLELAFHHHLCKTHRQSILAKLPPKGKLRSLCSQHVERLQIFQHLHPIVVQAAFPPLYKELFSTETESPVGLSK (SEQ ID NO: 1) (Purchased from Proteros Biostructures GmbH). After 30 min of preincubation, 40 μL of HIS-TAG PVT SPA beads (Perkin Elmer) were added. The plates were then incubated for minimum 4 hours at room temperature in darkness before measuring the SPA signal using a MicroBeta plate scintillation counter. Final assay conditions were: 50 mM HEPES pH 7.4, 150 mM NaCl, 5 mM MgCl2, 0.1% BSA, 4 μg/well HIS-TAG PVT SPA Beads, 30 ng/well RORgT LBD (equal to a final concentration of 12 nM), 15 nM [^3H]-25-Hydroxycholesterol, 0.5% DMSO and varying concentrations of test compound in a total volume of 80 μL/well. EC50 values were calculated using a 4-parameter non-linear regression curve-fitting model.

[3] = system: IL-17A levels in human peripheral blood; experiment: tissue or blood; type: cell-based; details: 72 h, read-out: Human Whole blood IL-17A (nM)

SMILES	pEC50 [1]	pEC50 [2]	EC50 [3] [nM]
Cc1c(CN2CCN(C(=O)c3ccccc3)[C@@H](C)C2)cc(Cl)cc1Nc1nnc(C#N)o1 [Example 1, 5-[3-[[(3S)-4-benzoyl-3-methyl-piperazin-1-yl]methyl]-5-chloro-2-methyl-anilino]-1,3,4-oxadiazole-2-carbonitrile]	5.52	7.40	
COCc1nnc(Nc2cc(Cl)cc(CN3CCN(C(=O)c4ccccc4)[C@@H](C)C3)c2C)o1 [Example 2, [(2S)-4-[[5-chloro-3-[[5-(methoxymethyl)-1,3,4-oxadiazol-2-yl]amino]-2-methyl-phenyl]methyl]-2-methyl-piperazin-1-yl]-phenyl-methanone]	6.86	7.54	454
Cc1c(CN2CCN(C(=O)c3ccccc3)[C@@H](C)C2)cc(Cl)cc1Nc1nnc(C2CCOC2)o1 (stereo partly drawn) [Example 3, [(2S)-4-[[5-chloro-2-methyl-3-[(5-tetrahydrofuran-3-yl-1,3,4-oxadiazol-2-yl)amino]phenyl]methyl]-2-methyl-piperazin-1-yl]-phenyl-methanone]	7.29	7.65	204
Cc1c(CN2CCN(C(=O)c3ccccc3)[C@@H](C)C2)cc(Cl)cc1Nc1nnc(C2CCCO2)o1 (stereo partly drawn) [Example 4, [(2S)-4-[[5-chloro-2-methyl-3-[(5-tetrahydrofuran-2-yl-1,3,4-oxadiazol-2-yl)amino]phenyl]methyl]-2-methyl-piperazin-1-yl]-phenyl-methanone]	7.46	7.52	428
Cc1c(CN2CCN(C(=O)c3ccccc3)[C@@H](C)C2)cc(Cl)cc1Nc1nnc(C2CC2)o1 [Example 5, [(2S)-4-[[5-chloro-3-[(5-cyclopropyl-1,3,4-oxadiazol-2-yl)amino]-2-methyl-phenyl]methyl]-2-methyl-piperazin-1-yl]-phenyl-methanone]	7.16	7.65	385
Cc1c(CN2CCN(C(=O)c3ccccc3)[C@@H](C)C2)cc(Cl)cc1Nc1nnc(C2(O)CC2)o1 [Example 6, [(2S)-4-[[5-chloro-3-[[5-(1-hydroxycyclopropyl)-1,3,4-oxadiazol-2-yl]amino]-2-methyl-phenyl]methyl]-2-methyl-piperazin-1-yl]-phenyl-methanone]	6.63	7.50	504
Cc1c(CN2CCN(C(=O)c3ccccc3)[C@@H](C)C2)cc(Cl)cc1Nc1nnc(CCC#N)o1 [Example 7, 3-[5-[3-[[(3S)-4-benzoyl-3-methyl-piperazin-1-yl]methyl]-5-chloro-2-methyl-anilino]-1,3,4-oxadiazol-2-yl]propanenitrile]	7.30	7.48	219
CCC(F)(F)C(=O)N1CCN(Cc2cc(Cl)cc(Nc3nnc(COC)o3)c2C)C[C@@H]1C [Example 8, 1-[(2S)-4-[[5-chloro-3-[[5-(methoxymethyl)-1,3,4-oxadiazol-2-yl]amino]-2-methyl-phenyl]methyl]-2-methyl-piperazin-1-yl]-2,2-difluoro-butan-1-one]	6.60	7.16	497
COCc1nnc(Nc2cc(Cl)cc(CN3CCN(C(=O)c4ccccc4F)[C@@H](C)C3)c2C)o1 [Example 9, [(2S)-4-[[5-chloro-3-[[5-(methoxymethyl)-1,3,4-oxadiazol-2-yl]amino]-2-methyl-phenyl]methyl]-2-methyl-piperazin-1-yl]-(2-fluorophenyl)methanone]	7.00	7.63	254
COCc1nnc(Nc2cc(Cl)cc(CN3CCN(C(=O)C4CCC(F)(F)C4)[C@@H](C)C3)c2C)o1 (stereo partly drawn) [Example 10, [(2S)-4-[[5-chloro-3-[[5-(methoxymethyl)-1,3,4-oxadiazol-2-yl]amino]-2-methyl-phenyl]methyl]-2-methyl-piperazin-1-yl]-(3,3-difluorocyclopentyl)methanone]	6.76	7.34	296
CC[C@H](C)C(=O)N1CCN(Cc2cc(Cl)cc(Nc3nnc(COC)o3)c2C)C[C@@H]1C [Example 11, (2S)-1-[(2S)-4-[[5-chloro-3-[[5-(methoxymethyl)-1,3,4-oxadiazol-2-yl]amino]-2-methyl-phenyl]methyl]-2-methyl-piperazin-1-yl]-2-methyl-butan-1-one]	7.03	7.55	132
COCc1nnc(Nc2cc(Cl)cc(CN3CCN(C(=O)C4CCC4)[C@@H](C)C3)c2C)o1 [Example 12, [(2S)-4-[[5-chloro-3-[[5-(methoxymethyl)-1,3,4-oxadiazol-2-yl]amino]-2-methyl-phenyl]methyl]-2-methyl-piperazin-1-yl]-cyclobutyl-methanone]	6.89	7.39	302
Cc1cc(CN2CCN(C(=O)OC(C)(C)C)[C@@H](C)C2)c(C)c(Nc2nnc([C@H](C)O)o2)c1 [Example 28, tert-butyl (2S)-4-[[3-[[5-[(1S)-1-hydroxyethyl]-1,3,4-oxadiazol-2-yl]amino]-2,5-dimethyl-phenyl]methyl]-2-methyl-piperazine-1-carboxylate]	6.97	7.45	
Cc1c(CN2CCN(C(=O)OCC(F)(F)F)[C@@H](C)C2)cc(Cl)cc1Nc1nnc(CC#N)o1 [Example 69, 2,2,2-trifluoroethyl (2S)-4-[[5-chloro-3-[[5-(cyanomethyl)-1,3,4-oxadiazol-2-yl]amino]-2-methyl-phenyl]methyl]-2-methyl-piperazine-1-carboxylate]	6.51	7.15	
Cc1cc(CN2CCN(C(=O)O[C@H](C)C(F)(F)F)[C@@H](C)C2)c(C)c(Nc2nnc([C@H]3NCC[C@H]3O)o2)c1 [Example 80, [(1R)-2,2,2-trifluoro-1-methyl-ethyl] (2S)-4-[[3-[[5-[(2S,3R)-3-hydroxypyrrolidin-2-yl]-1,3,4-oxadiazol-2-yl]amino]-2,5-dimethyl-phenyl]methyl]-2-methyl-piperazine-1-carboxylate]	7.15	7.65	
Cc1cc(CN2CCN(C(=O)OCC(F)(F)F)[C@@H](C)C2)c(C)c(Nc2nnc([C@H]3NCC[C@H]3O)o2)c1 [Example 81, 2,2,2-trifluoroethyl (2S)-4-[[3-[[5-[(2S,3R)-3-hydroxypyrrolidin-2-yl]-1,3,4-oxadiazol-2-yl]amino]-2,5-dimethyl-phenyl]methyl]-2-methyl-piperazine-1-carboxylate]	5.82	6.96	
CC[C@@H](C)OC(=O)N1CCN(Cc2cc(C)cc(Nc3nnc([C@H]4NCC[C@H]4O)o3)c2C)C[C@@H]1C [Example 82, [(1R)-1-methylpropyl] (2S)-4-[[3-[[5-[(2S,3R)-3-hydroxypyrrolidin-2-yl]-1,3,4-oxadiazol-2-yl]amino]-2,5-dimethyl-phenyl]methyl]-2-methyl-piperazine-1-carboxylate]	7.34	7.49	
